This is an account of results in ChEMBL document CHEMBL5236560, “Structure-Based Discovery of Potent CARM1 Inhibitors for Solid Tumor and Cancer Immunology Therapy” (J Med Chem, 2021).

As a reminder, the IC50 is the point on the concentration scale where inhibition reaches its midpoint.

Data set [1] deals with Protein arginine N-methyltransferase 3 (Homo sapiens, UniProt O60678). The experiment in a line: Inhibition of PRMT3 (unknown origin) incubated for 15 mins measured after 60 min by AlphaLISA assay. Background: Alpha assays give light when donor and acceptor beads are brought close together.
The target of data set [2] is Protein arginine N-methyltransferase 1 (Homo sapiens, UniProt Q99873). The experiment in a line: Inhibition of PRMT1 (unknown origin) incubated for 15 mins measured after 60 min by AlphaLISA assay.
The subject of data set [3] is BT-549. The experiment in a line: Antiproliferative activity against human BT-549 cells assessed as cell growth inhibition incubated for 6 days by SRB assay. It is filed as functional, cell-based. The conditions noted are these: BT-549, 144 h. (In general: The SRB assay estimates cell density from bound dye.)
In data set [4] the test system is A-375. The experiment in a line: Antiproliferative activity against human A-375 cells assessed as cell growth inhibition incubated for 6 days by SRB assay. It is filed as functional, cell-based. The following applies: A-375, 144 h.
Data set [5] deals with Protein arginine N-methyltransferase 6 (Homo sapiens, UniProt Q96LA8). The experiment in a line: Inhibition of PRMT6 (unknown origin) incubated for 15 mins measured after 60 min by AlphaLISA assay.
Data set [6] has as its target Protein arginine N-methyltransferase 8 (Homo sapiens, UniProt Q9NR22). The experiment in a line: Inhibition of PRMT8 (unknown origin) incubated for 15 mins measured after 60 min by AlphaLISA assay.
In data set [7] the target is Protein arginine N-methyltransferase 5 (Homo sapiens, UniProt O14744). The experiment in a line: Inhibition of PRMT5 (unknown origin) incubated for 15 mins measured after 60 min by AlphaLISA assay.
The target in data set [8] is T1, Protein arginine N-methyltransferase 7 (Homo sapiens, UniProt Q9NVM4).
T1 sequence (Q9NVM4 whole entry): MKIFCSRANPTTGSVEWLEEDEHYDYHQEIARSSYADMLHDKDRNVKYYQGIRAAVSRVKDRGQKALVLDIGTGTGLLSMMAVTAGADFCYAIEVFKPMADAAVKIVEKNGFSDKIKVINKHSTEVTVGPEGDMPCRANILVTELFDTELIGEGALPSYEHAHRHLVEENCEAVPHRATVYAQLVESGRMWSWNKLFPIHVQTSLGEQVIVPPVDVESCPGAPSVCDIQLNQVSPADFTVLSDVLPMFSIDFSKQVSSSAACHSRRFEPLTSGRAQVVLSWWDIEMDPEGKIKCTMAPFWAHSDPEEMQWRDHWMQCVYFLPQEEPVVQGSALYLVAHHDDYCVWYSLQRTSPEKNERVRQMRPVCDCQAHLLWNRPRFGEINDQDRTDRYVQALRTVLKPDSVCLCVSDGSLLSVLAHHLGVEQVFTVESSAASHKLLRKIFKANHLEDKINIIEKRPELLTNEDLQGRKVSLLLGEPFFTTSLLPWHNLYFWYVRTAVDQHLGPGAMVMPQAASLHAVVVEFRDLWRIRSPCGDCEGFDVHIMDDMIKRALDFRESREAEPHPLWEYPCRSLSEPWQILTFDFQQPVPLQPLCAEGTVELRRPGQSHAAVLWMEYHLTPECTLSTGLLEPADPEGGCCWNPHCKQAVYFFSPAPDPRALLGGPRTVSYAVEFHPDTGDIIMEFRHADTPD
The experiment in a line: Inhibition of PRMT7 (unknown origin) by radioisotope based assay.

The test system of data set [9] is MDA-MB-453. The experiment in a line: Antiproliferative activity against human MDA-MB-453 cells assessed as cell growth inhibition incubated for 6 days by SRB assay. Type of data set: functional, cell-based. The conditions noted are these: MDA-MB-453, 144 h.
The subject of data set [10] is SMMC-7721. The experiment in a line: Antiproliferative activity against human SMMC-7721 cells assessed as cell growth inhibition incubated for 6 days by SRB assay. It is filed as functional, cell-based. The following applies: SMMC-7721, 144 h.
Data set [11] concerns ASPC1. The experiment in a line: Antiproliferative activity against human ASPC1 cells assessed as cell growth inhibition incubated for 6 days by SRB assay. It is filed as functional, cell-based. The following applies: ASPC1, 144 h.
Data set [12] has as its system BT-549. The experiment in a line: Induction of apoptosis in human BT-549 cells at 15 uM measured after 96 hrs by Annexin V-FITC/PI staining based flow cytometric analysis (reference value: 9.7 %). Type of data set: functional.
Data set [13] relates to A-375. The experiment in a line: Induction of apoptosis in human A-375 cells at 15 uM measured after 96 hrs by Annexin V-FITC/PI staining based flow cytometric analysis (reference value: 5.6 %). It is filed as functional. (A flow cytometer gives signals particle by particle.)
The test system of data set [14] is ASPC1. The experiment in a line: Induction of apoptosis in human ASPC1 cells at 15 uM measured after 96 hrs by Annexin V-FITC/PI staining based flow cytometric analysis (reference value: 6.1 %). Type of data set: functional.
Data set [15] concerns BT-549. The experiment in a line: Antitumor activity against human BT-549 cells xenografted in po dosed nude mouse assessed as tumor growth inhibition at 75 mg/kg administered once daily measured after 18 days relative to control. The following applies: BT-549, 432 h, time 18 day, read-out: TGI. Type of data set: functional.
Data set [16] has as its system BT-549. The experiment in a line: Antitumor activity against human BT-549 cells xenografted in po dosed nude mouse assessed as tumor growth inhibition at 125 mg/kg administered once daily measured after 18 days relative to control. It is filed as functional. The conditions noted are these: BT-549, 432 h, time 18 day, read-out: TGI.
Data set [17] relates to A-375. The experiment in a line: Antitumor activity against human A-375 cells xenografted in po dosed nude mouse assessed as tumor growth inhibition at 100 mg/kg administered once daily measured after 21 days relative to control. Type of data set: functional. The following applies: A-375, 504 h, time 21 day, read-out: TGI.
For data set [18], the system named is MC-38. The experiment in a line: Antitumor activity against mouse MC38 cells implanted in po dosed BALB/c nude mouse assessed as tumor growth inhibition at 100 mg/kg administered once daily measured after 18 days relative to control. It is filed as functional. The following applies: MC-38, 432 h, time 18 day, read-out: TGI.
The test system of data set [19] is MC-38. The experiment in a line: Antitumor activity against mouse MC38 cells implanted in po dosed C57BL/6J mouse assessed as tumor growth inhibition at 100 mg/kg administered once daily measured after 32 days relative to control. The conditions noted are these: MC-38, 768 h, time 32 day, read-out: TGI. Type of data set: functional.
A short description of data set [20]: Toxicity in po dosed nude mouse xenografted with human BT-549 cells assessed as change in body weight at 75 to 125 mg/kg administered once daily measured after 18 days. Type of data set: organism-based. The conditions noted are these: in vivo, 432 h, dose 75-125 mg/kg, time 18 day.
The nature of data set [21]: Toxicity in po dosed nude mouse xenografted with human A-375 cells assessed as change in body weight at 100 mg/kg administered once daily measured after 21 days. The following applies: in vivo, 504 h, time 21 day. It is filed as organism-based.

Protein arginine N-methyltransferase 3, sequence (O60678 whole entry): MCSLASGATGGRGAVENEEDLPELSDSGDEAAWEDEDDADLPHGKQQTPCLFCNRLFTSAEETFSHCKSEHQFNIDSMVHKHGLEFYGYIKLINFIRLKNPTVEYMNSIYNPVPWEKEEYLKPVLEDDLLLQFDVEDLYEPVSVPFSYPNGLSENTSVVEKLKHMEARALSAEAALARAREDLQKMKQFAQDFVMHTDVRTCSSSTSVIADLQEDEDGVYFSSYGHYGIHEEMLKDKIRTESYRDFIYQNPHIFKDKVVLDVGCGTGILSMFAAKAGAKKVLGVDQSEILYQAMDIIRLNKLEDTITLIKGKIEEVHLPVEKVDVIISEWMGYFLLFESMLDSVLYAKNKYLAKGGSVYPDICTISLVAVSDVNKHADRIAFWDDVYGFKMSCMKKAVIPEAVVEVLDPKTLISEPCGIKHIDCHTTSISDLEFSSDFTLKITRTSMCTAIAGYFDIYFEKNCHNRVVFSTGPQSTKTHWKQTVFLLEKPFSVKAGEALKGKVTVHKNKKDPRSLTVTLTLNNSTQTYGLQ
Protein arginine N-methyltransferase 1, sequence (Q99873 whole entry): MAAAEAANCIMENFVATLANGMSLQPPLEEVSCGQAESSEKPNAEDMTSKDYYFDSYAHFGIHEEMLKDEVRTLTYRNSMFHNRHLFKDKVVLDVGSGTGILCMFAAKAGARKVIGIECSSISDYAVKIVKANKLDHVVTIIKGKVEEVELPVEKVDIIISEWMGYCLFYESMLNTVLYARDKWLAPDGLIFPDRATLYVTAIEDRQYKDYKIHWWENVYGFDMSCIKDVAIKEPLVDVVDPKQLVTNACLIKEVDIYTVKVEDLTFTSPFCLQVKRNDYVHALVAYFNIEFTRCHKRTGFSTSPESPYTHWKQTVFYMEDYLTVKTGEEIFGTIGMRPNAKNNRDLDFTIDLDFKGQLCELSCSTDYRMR
Protein arginine N-methyltransferase 6, sequence (Q96LA8 whole entry): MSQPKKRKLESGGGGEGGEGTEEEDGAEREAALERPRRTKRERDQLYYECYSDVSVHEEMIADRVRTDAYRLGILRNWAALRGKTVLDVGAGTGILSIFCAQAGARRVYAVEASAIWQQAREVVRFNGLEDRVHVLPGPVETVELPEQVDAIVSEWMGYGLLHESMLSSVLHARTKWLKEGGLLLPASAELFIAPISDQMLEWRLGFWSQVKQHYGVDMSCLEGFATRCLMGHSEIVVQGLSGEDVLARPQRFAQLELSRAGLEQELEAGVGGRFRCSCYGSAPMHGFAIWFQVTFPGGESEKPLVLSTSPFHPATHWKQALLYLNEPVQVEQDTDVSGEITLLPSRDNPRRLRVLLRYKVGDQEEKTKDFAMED
Protein arginine N-methyltransferase 8, sequence (Q9NR22 whole entry): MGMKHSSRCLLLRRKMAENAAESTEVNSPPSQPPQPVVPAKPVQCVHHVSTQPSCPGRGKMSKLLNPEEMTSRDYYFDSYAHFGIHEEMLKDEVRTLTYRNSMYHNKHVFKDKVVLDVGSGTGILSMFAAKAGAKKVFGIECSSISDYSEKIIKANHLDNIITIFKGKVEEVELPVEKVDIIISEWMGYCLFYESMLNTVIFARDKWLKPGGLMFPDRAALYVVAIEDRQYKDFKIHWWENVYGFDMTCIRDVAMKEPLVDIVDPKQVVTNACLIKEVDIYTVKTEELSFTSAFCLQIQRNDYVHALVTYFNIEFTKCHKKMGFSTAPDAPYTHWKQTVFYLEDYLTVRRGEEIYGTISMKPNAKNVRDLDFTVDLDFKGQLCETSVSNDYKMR
Protein arginine N-methyltransferase 5, sequence (O14744 whole entry): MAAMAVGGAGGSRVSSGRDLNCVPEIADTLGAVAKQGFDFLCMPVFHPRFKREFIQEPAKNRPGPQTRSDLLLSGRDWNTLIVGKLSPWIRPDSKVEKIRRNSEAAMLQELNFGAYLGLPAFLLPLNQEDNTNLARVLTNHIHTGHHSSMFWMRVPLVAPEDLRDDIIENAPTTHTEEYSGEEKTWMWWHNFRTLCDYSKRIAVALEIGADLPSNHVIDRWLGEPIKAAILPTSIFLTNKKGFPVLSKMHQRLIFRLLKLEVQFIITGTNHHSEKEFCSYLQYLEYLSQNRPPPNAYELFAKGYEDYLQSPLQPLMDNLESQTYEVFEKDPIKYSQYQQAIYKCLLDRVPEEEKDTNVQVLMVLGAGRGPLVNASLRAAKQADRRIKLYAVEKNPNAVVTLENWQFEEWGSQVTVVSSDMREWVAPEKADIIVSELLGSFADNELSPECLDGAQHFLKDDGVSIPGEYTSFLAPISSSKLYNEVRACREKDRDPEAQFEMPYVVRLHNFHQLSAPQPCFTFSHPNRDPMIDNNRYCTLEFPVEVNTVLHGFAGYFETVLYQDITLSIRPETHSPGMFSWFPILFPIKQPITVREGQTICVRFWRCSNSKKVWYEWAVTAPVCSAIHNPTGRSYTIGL

For the compound `CNCCNCc1cccc(-c2nc(Nc3ccccc3)c(C)c(-c3c(C)noc3C)n2)c1`, the IC50 is over 1 µM in data set [1]; over 1 µM in data set [2]; 8.8 µM in data set [3]; 5.9 µM in data set [4]; 0.49 µM in [5]; 0.92 µM in data set [6]. Further, the IC50 was over 50 µM in data set [7]; over 50 µM in [8]; 5.7 µM in [9]; 5.5 µM in [10]; 12.3 µM in data set [11]. Moreover, the Activity is reported as 46.1% in [12]; 44% in data set [13]; 17.2% in data set [14]; “Non-Toxic” in data set [20]; “Non-Toxic” in [21]. Besides, in [15], the inhibition in vivo at 75 mg/kg turned out to be 38%. Moreover, the inhibition in vivo at 125 mg/kg in data set [16] is 61.5%. Besides, the inhibition in vivo at 100 mg/kg in data set [17] was 69%; in data set [18], 23.3%; in data set [19], 79.6%.
